For the assay, the target named is ALK2 (Homo sapiens (Human), UniProt Q04771). The assay can be described thus: ALK2 inhibition, LanthaScreen Eu Kinase Binding Assay (ThermoFisher Scientific / Life Technologies). The following applies: read-out: Measured Ki (IC50) Value for Compounds: IC50. On the procedure:
Biochemical assays to measure the inhibitory effects of the compounds were performed by ThermoFisher Scientific (Life Technologies). ALK2 inhibition was tested using LanthaScreen™ Eu Kinase Binding Assay screening protocol.
For orientation: TR-FRET usually uses a lanthanide donor and a delayed reading to cut background.

SMILES strings stand for the structures. Bounds are passed on as bounds.

Sequence of ALK2 (Q04771 21-509): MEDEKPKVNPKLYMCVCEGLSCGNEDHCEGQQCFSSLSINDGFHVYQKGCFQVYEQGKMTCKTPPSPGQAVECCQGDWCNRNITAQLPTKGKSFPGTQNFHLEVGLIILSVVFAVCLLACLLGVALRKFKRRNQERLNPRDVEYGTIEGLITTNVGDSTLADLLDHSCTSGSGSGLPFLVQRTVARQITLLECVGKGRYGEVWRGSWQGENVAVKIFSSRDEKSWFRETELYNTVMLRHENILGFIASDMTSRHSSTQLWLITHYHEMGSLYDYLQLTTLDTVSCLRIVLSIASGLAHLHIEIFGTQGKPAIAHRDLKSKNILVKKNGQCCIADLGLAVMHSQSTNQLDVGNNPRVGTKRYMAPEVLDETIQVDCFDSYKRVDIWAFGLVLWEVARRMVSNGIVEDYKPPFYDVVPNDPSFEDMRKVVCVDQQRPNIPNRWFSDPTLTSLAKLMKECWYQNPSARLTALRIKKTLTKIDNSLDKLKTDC

Regarding `COc1cc(-n2cnc(Nc3nc(N4CCC[C@H]4CO)c4ccc(-c5cccc(F)c5)cc4n3)c2)cc(OC)c1OC` [Compound 362b, (S)-(1-(7-(3-fluorophenyl)-2-((1-(3,4,5-trimethoxyphenyl)-1H-imidazol-4-yl)amino)quinazolin-4-yl)pyrrolidin-2-yl)methanol], the IC50 was below 100 nM.
The result for `COc1cc(-n2cnc(Nc3nc4c(c(N5CCC[C@H]5C(N)=O)n3)CN(Cc3ccccc3)CC4)c2)cc(OC)c1OC` [Compound 213b, (S)-1-(6-benzyl-2-((1-(3,4,5-trimethoxyphenyl)-1H-imidazol-4-yl)amino)-5,6,7,8-tetrahydropyrido[4,3-d]pyrimidin-4-yl)pyrrolidine-2-carboxamide] reads below 100 nM; that for `OC[C@@H]1CCCN1c1nc(Nc2cn(-c3ccc(OC(F)(F)F)c(Br)c3)cn2)c2cccn2n1` [Compound 420e, (S)-(1-(4-((1-(3-bromo-4-(trifluoromethoxy)phenyl)-1H-imidazol-4-yl)amino)pyrrolo[2,1-f][1,2,4]triazin-2-yl)pyrrolidin-2-yl)methanol], above 1000 nM; that for `COc1cc(-c2nnc(Nc3nc(N4CCC[C@H]4CO)c4cccn4n3)o2)cc(OC)c1OC` [Compound 418b, (S)-(1-(2-((5-(3,4,5-trimethoxyphenyl)-1,3,4-oxadiazol-2-yl)amino)pyrrolo[2,1-f][1,2,4]triazin-4-yl)pyrrolidin-2-yl)methanol], above 1000 nM.
Next, `c1ccc([C@@H]2CCCN2c2nc(Nc3cn(C4CCCCC4)cn3)c3cccn3n2)cc1` [Compound 46a, (S)—N-(1-cyclohexyl-1H-imidazol-4-yl)-2-(2-phenylpyrrolidin-1-yl)pyrrolo[2,1-f][1,2,4]triazin-4-amine]: 100 to 1000 nM.
The result for `COc1cc(-n2cnc(Nc3nc(N4CCC[C@H]4C(N)=O)nc4c3c(C)nn4C)c2)cc(OC)c1OC` [Compound 373c, (S)-1-(1,3-dimethyl-4-((1-(3,4,5-trimethoxyphenyl)-1H-imidazol-4-yl)amino)-1H-pyrazolo[3,4-d]pyrimidin-6-yl)pyrrolidine-2-carboxamide] reads above 1000 nM.
For the compound `COc1cc(-n2cnc(Nc3nc(N4CCC[C@H]4CO)nc4c3CN(C(C)C)C4=O)c2)cc(OC)c1OC` [Compound 274c, (S)-2-(2-(hydroxymethyl)pyrrolidin-1-yl)-6-isopropyl-4-((1-(3,4,5-trimethoxyphenyl)-1H-imidazol-4-yl)amino)-5H-pyrrolo[3,4-d]pyrimidin-7(6H)-one], the 50% inhibitory concentration (IC50) was below 100 nM.
The result for `OC[C@@H]1CCCN1c1nc(Nc2nccs2)c2cccn2n1` [Compound 455c, (S)-(1-(4-(thiazol-2-ylamino)pyrrolo[2,1-f][1,2,4]triazin-2-yl)pyrrolidin-2-yl)methanol] reads 100 to 1000 nM; that for `COc1cc(-n2cnc(Nc3nc(N4CCC[C@H]4CO)c4cccn4n3)c2)cc(C(C)=O)c1OC` [Compound 234e, (S)-1-(5-(4-((4-(2-(hydroxymethyl)pyrrolidin-1-yl)pyrrolo[2,1-f][1,2,4]triazin-2-yl)amino)-1H-imidazol-1-yl)-2,3-dimethoxyphenyl)ethanone], 100 to 1000 nM.
As for `COc1cc(-n2cnc(Nc3nc(N4CCC[C@H]4C(N)=O)c4cccn4n3)c2)cc(OC)c1OC` [Compound 147b, (S)-1-(2-((1-(3,4,5-trimethoxyphenyl)-1H-imidazol-4-yl)amino)pyrrolo[2,1-f][1,2,4]triazin-4-yl)pyrrolidine-2-carboxamide], the IC50 is above 1000 nM.
The result for `OC[C@@H]1CCCN1c1nc(Nc2cn(-c3ccc4cc[nH]c4c3)cn2)c2cccn2n1` [Compound 65c, (S)-(1-(4-((1-(1H-indol-6-yl)-1H-imidazol-4-yl)amino)pyrrolo[2,1-f][1,2,4]triazin-2-yl)pyrrolidin-2-yl)methanol] reads 100 to 1000 nM.
Next, `COc1cc(Cl)cc(-n2cnc(Nc3nc(N4CCC[C@H]4CO)nn4cccc34)c2)c1` [Compound 322b, (S)-(1-(4-((1-(3-chloro-5-methoxyphenyl)-1H-imidazol-4-yl)amino)pyrrolo[2,1-f][1,2,4]triazin-2-yl)pyrrolidin-2-yl)methanol]: below 100 nM; `COc1cc(-n2cnc(Nc3nc(N4CCC[C@H]4C(N)=O)nn4c(C(=O)N5CCCCC5)ccc34)c2)cc(OC)c1OC` [Compound 126c, (S)-1-(7-(piperidine-1-carbonyl)-4-((1-(3,4,5-trimethoxyphenyl)-1H-imidazol-4-yl)amino)pyrrolo[2,1-f][1,2,4]triazin-2-yl)pyrrolidine-2-carboxamide]: below 100 nM.
Take `COc1cc(-n2cnc(Nc3nc(N4CCC[C@H]4CO)nn4c(C(C)O)ccc34)c2)cc(OC)c1OC` (stereo partly drawn) [Compound 99b, 1-(2-((S)-2-(hydroxymethyl)pyrrolidin-1-yl)-4-((1-(3,4,5-trimethoxyphenyl)-1H-imidazol-4-yl)amino)pyrrolo[2,1-f][1,2,4]triazin-7-yl)ethanol]: the IC50 was below 100 nM.
In the case of `OC[C@@H]1CCCN1c1nc(Nc2cn(-c3ccc(F)cc3)cn2)c2sccc2n1` [Compound 58b, (S)-(1-(4-((1-(4-fluorophenyl)-1H-imidazol-4-yl)amino)thieno[3,2-d]pyrimidin-2-yl)pyrrolidin-2-yl)methanol], the concentration for half-maximal inhibition (IC50) was below 100 nM.
Consider `O=C1OCc2ccc(-n3cnc(Nc4nc(N5CCC[C@H]5CO)nn5cccc45)c3)cc21` [Compound 469g, (S)-6-(4-((2-(2-(hydroxymethyl)pyrrolidin-1-yl)pyrrolo[2,1-f][1,2,4]triazin-4-yl)amino)-1H-imidazol-1-yl)isobenzofuran-1(3H)-one], for which the IC50 was 100 to 1000 nM.

As a reminder, the IC50 is the concentration that gives 50% inhibition.

These data come from patent publication US11661426B2, “Imidazole-containing inhibitors of ALK2 kinase” (BioCryst Pharmaceuticals, Inc., priority 2017, dated 2023).
